Assay [1] addresses PIM1 (Homo sapiens, UniProt P11309). Put plainly: Kinase panel: PIM1. Type of assay: biochemical. The settings on record: 10 μM EP009. How it is done: (§1) Achieving JAK3 selectivity remains a significant challenge in the development of new small molecules for the treatment of cancer and immune-derived diseases. As such, the inventors employed cell-based screening assays of small-molecule libraries based upon the chemical scaffold of the established JAK3 inhibitor NC1153 (Stepkowski et al., J Immunol. (2005), 175(7):4236-4246) EP009 (FIG. 2A) was selected as a lead compound due to improved intrinsic stability (>95% purity in various solvents at 37° C. for 24 hours; FIG. 3) and high-degree of JAK3 selectivity. To test JAK3 versus JAK2 specificity of EP009, the IL-2/JAK3-dependent Kit225, and IL-3/JAK2-dependent BaF/3 cell lines were used. Kit225 and BaF/3 cells growing in the presence of IL-2 or IL-3, respectively, were treated with ascending concentrations of EP009 for 12 hours and cellular JAK3 and JAK2 tyrosine phosphorylation levels detected by Western blot analysis (FIGS. 2B and 2C). Following densitometric analysis, EP009 was determined to dose-dependently reduce IL-2-mediated JAK3 tyrosine phosphorylation with a cellular 50% inhibitory concentration (IC50) between 10 and 20 μM (FIG. 2B). […] To globally evaluate specificity, the inhibitory activity of EP009 was measured against a panel of protein kinases distributed throughout the kinome using the scanEDGE profiling service (KINOMEscan). […]

The target in assay [2] is JNK3 (Homo sapiens, UniProt P53779). Nature of the assay: Kinase panel: JNK3. The settings on record: 10 μM EP009. The class given is biochemical. On the procedure: as §1
Sequence of JNK3 (P53779 whole entry): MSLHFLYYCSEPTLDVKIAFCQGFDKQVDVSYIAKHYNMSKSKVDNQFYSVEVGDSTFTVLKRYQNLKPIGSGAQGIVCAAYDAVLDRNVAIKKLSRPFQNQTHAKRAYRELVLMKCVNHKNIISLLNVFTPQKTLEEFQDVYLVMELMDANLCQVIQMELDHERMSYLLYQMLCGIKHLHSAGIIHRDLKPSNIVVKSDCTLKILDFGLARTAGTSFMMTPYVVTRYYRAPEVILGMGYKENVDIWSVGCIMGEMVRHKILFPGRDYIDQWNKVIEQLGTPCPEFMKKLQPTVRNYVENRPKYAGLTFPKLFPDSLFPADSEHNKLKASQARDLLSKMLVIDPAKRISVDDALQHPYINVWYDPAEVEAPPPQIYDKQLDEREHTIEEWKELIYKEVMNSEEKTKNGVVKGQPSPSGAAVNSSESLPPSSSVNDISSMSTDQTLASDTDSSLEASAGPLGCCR
For assay [3], the target named is JAK3 (Homo sapiens, UniProt P52333). Nature of the assay: Constitutive JAK3 tyrosine phosphorylation in SU-DHL-1 cells (IP/Western blot). The class given is cell-based. Further details: cellular JAK3 and JAK2 tyrosine phosphorylation levels detected by Western blot analysis; endogenous in cells. The following applies: 20 μM EP009, 12 hours, vs vehicle. The text has this:
FIGS. 6A-6B. EP009 treatment disrupts constitutive JAK3/STAT3 pathway activation and down-regulates CD30 cell surface expression in human ALCL cells. (A) Kit225 (lane a), SUP-M2 (lane b), Karpas299 (lane c), DEL (lane d) and SU-DHL-1 (lane e) total cell lysates were separated by 7.5% SDS-PAGE (upper panel) or were immunoprecipitated (IP) with JAK3 antibodies (lower panel) and separated on 7.5% SDS-PAGE, and then subjected to Western blot (WB) analysis with the indicated antibodies. (B) SU-DHL-1 cells were treated with vehicle (PBS; lane a) or increasing amounts of EP009 (0-40 μM; lanes b-e) for 12 hours. Cells were then lysed, clarified, and immunoprecipitated (IP) with anti-JAK3 (α-JAK3), and subjected to Western blot (WB) analysis with anti-phosphotyrosine (α-pY). Blots were stripped and reprobed with α-JAK3 to verify equivalent protein loading. (C) SU-DHL-1 cells were treated with vehicle (PBS) or increasing amounts of EP009 (0-40 μM) for 12 hours. […] Values represent pSTAT mean fluorescence intensity (MFI) normalized to corresponding GAPDH MFI, while error bars represent the standard deviation (n=2). Statistical significance was determined using Student's t-test. […] Cells were then analyzed by flow cytometry for CD30 expression. […]
A general note: Immunoblotting shows a protein as a band on a membrane.

Assay [4] addresses ABL1-phosphorylated (Homo sapiens, UniProt P00519). Nature of the assay: Kinase panel: ABL1-phosphorylated. The class given is biochemical. The following applies: 10 μM EP009. How it is done:
as §1

Assay [5] has as its target LKB1 (Homo sapiens, UniProt Q15831). Put plainly: Kinase panel: LKB1. The class given is biochemical. The following applies: 10 μM EP009. How it is done:
as §1

Assay [6] deals with MAPKAPK2 (Homo sapiens, UniProt P49137). Nature of the assay: Kinase panel: MAPKAPK2. The class given is biochemical. The following applies: 10 μM EP009. On the procedure:
as §1

Each structure is given as a SMILES string.

Sequence of JAK3 (P52333 whole entry): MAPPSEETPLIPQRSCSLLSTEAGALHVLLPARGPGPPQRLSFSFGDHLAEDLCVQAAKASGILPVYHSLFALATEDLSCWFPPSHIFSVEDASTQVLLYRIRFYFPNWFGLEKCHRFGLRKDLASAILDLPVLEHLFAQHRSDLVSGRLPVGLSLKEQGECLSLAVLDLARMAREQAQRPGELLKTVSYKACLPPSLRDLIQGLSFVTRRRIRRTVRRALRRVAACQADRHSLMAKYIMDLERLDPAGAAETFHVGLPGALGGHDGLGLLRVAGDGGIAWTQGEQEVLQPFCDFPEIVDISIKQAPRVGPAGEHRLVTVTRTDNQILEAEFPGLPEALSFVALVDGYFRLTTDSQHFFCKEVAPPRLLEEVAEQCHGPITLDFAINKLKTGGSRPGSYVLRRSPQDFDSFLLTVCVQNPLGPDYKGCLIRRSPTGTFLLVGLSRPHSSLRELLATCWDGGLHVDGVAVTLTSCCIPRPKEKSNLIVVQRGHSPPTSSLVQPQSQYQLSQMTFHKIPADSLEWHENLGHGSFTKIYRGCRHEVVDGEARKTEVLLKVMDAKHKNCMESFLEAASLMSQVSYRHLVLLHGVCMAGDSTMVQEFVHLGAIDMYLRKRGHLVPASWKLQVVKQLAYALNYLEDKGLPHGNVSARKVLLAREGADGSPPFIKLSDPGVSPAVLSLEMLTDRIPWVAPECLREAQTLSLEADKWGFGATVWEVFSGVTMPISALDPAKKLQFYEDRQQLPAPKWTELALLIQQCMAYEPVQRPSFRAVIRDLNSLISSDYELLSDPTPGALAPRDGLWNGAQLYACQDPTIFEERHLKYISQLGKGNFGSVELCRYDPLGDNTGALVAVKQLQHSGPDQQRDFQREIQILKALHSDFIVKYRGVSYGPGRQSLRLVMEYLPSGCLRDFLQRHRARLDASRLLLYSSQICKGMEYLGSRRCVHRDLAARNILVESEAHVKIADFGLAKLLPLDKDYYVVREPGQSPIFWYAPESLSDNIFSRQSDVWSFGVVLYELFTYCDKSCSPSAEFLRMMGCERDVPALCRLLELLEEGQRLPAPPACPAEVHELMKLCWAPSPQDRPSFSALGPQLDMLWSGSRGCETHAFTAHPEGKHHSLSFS
Sequence of ABL1-phosphorylated (P00519 whole entry): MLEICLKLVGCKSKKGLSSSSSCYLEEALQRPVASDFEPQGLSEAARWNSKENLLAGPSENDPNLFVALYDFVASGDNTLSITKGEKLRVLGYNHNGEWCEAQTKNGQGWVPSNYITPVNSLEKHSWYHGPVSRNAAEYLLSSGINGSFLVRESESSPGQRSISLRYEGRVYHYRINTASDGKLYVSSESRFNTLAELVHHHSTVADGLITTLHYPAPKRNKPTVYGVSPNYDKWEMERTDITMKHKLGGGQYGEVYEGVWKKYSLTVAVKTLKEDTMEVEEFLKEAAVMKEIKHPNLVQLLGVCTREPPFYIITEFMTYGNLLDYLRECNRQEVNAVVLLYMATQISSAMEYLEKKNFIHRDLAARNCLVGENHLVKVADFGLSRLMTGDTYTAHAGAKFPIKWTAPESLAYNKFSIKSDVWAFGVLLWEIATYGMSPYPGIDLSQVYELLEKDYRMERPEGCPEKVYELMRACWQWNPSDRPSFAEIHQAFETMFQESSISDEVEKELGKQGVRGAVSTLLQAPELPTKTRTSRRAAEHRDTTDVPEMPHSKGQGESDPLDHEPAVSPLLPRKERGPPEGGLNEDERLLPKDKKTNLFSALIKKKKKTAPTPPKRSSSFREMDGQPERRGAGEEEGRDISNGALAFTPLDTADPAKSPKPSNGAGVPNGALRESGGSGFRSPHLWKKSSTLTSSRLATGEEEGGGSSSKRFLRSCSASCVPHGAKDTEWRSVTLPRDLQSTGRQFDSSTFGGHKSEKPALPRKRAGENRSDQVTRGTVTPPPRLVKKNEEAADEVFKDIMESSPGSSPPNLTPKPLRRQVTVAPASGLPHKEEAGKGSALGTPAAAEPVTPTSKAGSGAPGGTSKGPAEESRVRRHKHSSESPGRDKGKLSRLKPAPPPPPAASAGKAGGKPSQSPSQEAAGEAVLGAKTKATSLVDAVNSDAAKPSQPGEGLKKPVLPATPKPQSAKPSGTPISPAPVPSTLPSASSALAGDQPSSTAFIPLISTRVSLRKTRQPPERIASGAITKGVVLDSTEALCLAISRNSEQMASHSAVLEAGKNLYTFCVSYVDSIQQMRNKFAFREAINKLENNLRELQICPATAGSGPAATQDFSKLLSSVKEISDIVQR
Sequence of LKB1 (Q15831 whole entry): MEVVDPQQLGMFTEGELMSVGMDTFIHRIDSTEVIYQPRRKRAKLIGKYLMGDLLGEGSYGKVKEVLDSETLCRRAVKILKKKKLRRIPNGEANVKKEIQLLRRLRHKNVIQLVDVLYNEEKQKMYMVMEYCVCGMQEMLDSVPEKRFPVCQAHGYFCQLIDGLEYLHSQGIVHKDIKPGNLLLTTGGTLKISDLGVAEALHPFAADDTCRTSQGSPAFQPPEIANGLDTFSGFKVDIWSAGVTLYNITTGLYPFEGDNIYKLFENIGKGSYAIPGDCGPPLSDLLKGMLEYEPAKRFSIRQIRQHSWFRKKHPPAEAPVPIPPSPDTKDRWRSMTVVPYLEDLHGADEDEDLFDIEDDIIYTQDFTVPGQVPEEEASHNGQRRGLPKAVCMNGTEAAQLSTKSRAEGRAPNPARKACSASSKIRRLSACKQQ
Sequence of PIM1 (P11309 whole entry): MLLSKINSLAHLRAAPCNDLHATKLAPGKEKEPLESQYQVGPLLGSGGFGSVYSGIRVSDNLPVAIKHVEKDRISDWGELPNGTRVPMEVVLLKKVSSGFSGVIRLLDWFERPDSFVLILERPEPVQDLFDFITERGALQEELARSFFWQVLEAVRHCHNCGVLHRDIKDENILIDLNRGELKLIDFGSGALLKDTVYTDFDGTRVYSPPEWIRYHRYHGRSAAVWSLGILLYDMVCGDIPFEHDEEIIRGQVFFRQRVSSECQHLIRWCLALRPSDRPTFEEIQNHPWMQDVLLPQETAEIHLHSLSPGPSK
Sequence of MAPKAPK2 (P49137 whole entry): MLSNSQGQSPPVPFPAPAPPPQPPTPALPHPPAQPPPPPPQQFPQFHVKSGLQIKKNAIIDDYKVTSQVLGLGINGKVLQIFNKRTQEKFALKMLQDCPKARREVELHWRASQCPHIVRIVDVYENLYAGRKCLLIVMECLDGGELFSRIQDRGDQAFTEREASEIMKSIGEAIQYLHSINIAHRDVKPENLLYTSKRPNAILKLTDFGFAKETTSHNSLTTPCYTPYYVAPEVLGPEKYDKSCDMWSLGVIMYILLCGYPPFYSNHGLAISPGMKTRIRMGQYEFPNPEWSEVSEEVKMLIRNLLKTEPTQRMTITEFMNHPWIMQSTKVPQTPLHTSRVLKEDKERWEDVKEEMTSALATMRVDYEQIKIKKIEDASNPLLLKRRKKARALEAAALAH

For `C=C1CCCCCCCCCC(CO)C1=O` (stereo not drawn) [EP009, 2-(Hydroxymethyl)-12-methylenecyclododecanone], the “Kinase Activity (% of Control)” value in assay [1], in assay [2], in assay [4], in assay [5] and in assay [6] was 100 % of Control each time. Further, the “decrease in JAK3 tyrosine phosphorylation levels” value in assay [3] came out at 70%.

For the origin of these results see patent US9371265B2, “Compositions and methods related to inhibitors of JAK kinase” (EP PHARMA, INC., priority 2012, dated 2016).
